Experimental data reported in patent US20260151350A1, “COMPOSITIONS AND METHODS FOR TARGETED DELIVERY TO CELLS” (The Board of Regents of The University of Texas System, priority 2021, published 2026).

System: C57BL/6 mice
Experiment: Cy5-mRNA biodistribution, ex vivo organ fluorescence after IV injection
Type: in vivo, mouse
Details: 0.5 mg/kg mRNA IV, 6 h
Procedure: FIG. 1B illustrates ex vivo fluorescence of Cy5-labelled mRNA in major organs extracted from C57BL/6 mice intravenously injected with example SORT LNPs (as described herein) that incorporate increasing percentages of different SORT molecules (0.5 mg/kg mRNA/body weight, 6 h).
FIG. 1C illustrates relative average Cy5 fluorescence measured in the liver, lung, and spleen as a function of SORT molecule percent inclusion (0.5 mg/kg mRNA/body weight, n=2). SORT molecules promote mRNA biodistribution to target organs. Data are shown as mean±s.e.m.
We first investigated the biodistribution of mRNA encapsulated in example SORT LNPs to determine whether there was a correlation between the organs in which the SORT LNPs accumulated and their tissue-specific mRNA activity. We formulated example liver, lung, and spleen SORT LNPs encapsulating Cy5-labelled mRNA following the identical protocols and formulation parameters used in our previous publications. We administered each LNP IV to C57BL/6 mice and tracked the in vivo biodistribution of the Cy5-mRNA using fluorescence imaging. Six hours post-injection, organs were excised and imaged ex vivo (FIG. 1B). The average fluorescence produced by the liver, spleen, and lungs was quantified (FIG. 1C). […] Importantly, these tracking studies quantify where the example SORT LNPs biodistribute but not where mRNA is translated to protein (functional delivery).

SORT molecule inclusion giving optimal liver biodistribution: 20%
SMILES: CCCCCCCC/C=C\CCCCCCCC(=O)OCC(CN(C)C)OC(=O)CCCCCCC/C=C\CCCCCCCC (stereo not shown) [DODAP, 1,2-Dioleoyl-3-dimethylammonium-propane]
